# Like-named read-outs stand apart in the source and are kept apart here.
# Assays:
# Karpas422 cells = test: Tumor cell growth inhibition assay; format: cell-based; conditions: Homo sapiens, KARPAS-422, 144 h, read-out: GI Karpas EC50
# Procedure: Tumor Cell Growth Inhibition Assay:
# Karpas422 cells were seeded into a 96-well plate at 2,000 cells/well in 150 μl medium (Alpha-MEM containing 10% FBS, […] Normocin, and […] Gentamycin, Invitrogen). A HP D300 digital dispenser was used to dose cells with DMSO or test compounds across a 10-point range of concentrations (high dose of 5 μM), and cultures were grown in a humidified 5% CO2 incubator at 37° C. After six days, plates were removed from incubator and equilibrated to room temperature. An equal volume of ATPlite assay reagent was added to each well, and samples were processed according to the manufacturer's instructions (Perkin Elmer). The luminescent signal was measured using an Envision plate reader equipped with a US-Luminescence detector.
# [1] = molecular target: BCL6 BTB domain (biotin-thrombin-BCL6 amino acids 1-129) (Homo sapiens (Human), UniProt P41182); test: Surface Plasmon Resonance (SPR) assay; format: binding; conditions: Biacore T200, single cycle kinetic analysis
# Procedure: Surface Plasmon Resonance (SPR) Assay
# SPR studies were performed using a Biacore™ T200 instrument (GE Health Sciences Inc.). […] The Biacore flow rate was set at 100 μl/min. […] Curve fitting and KD calculations were performed with the Biacore T200 Evaluation software (GE Health Sciences Inc).
# [2] = test system: BCL6 reporter construct in SuDHL4-3×BCL6-TK-Luc cells; test: Cell-based luciferase assay (BCL6 reporter); conditions: 48 h, read-out: Luc IC50
# Procedure: Cell-Based Luciferase Assay:
# A BCL6 reporter construct containing three copies of the consensus BCL6 binding site, the TK promoter, and the firefly luciferase gene was stably expressed in SuDHL4 cells after lentivirus infection and selection with Blasticidin. SuDHL4-3×BCL6-TK-Luc cells were seeded into a Viewplate 384-well assay dish at 15,000 cells/well in […] (Alpha-MEM high glucose containing 10% FBS, 25 mM HEPES, […] GlutaMAX, 100 µg/mL Normocin, and […] Gentamycin, Invitrogen). A HP D300 digital dispenser was used to dose cells with DMSO or test compounds across a 10-point range of concentrations (high dose of 10 μM), and cultures were grown in a humidified 5% CO2 incubator at 37° C. After two days, plates were removed from the incubator and equilibrated to room temperature. An equal volume of neolite reporter gene assay reagent was added to each well, and samples were processed according to the manufacturer's instructions (Perkin Elmer). The luminescent signal was measured using an Envision plate reader equipped with a US-Luminescence detector.
# [3] = Karpas422 cells, six days, ATPlite
# [4] = SuDHL4-3×BCL6-TK-Luc cells, two days
smiles,measurement,setting,value
"COc1c(O)c(C(N)=O)cc(-c2cn(CC(=O)Nc3cc(N4CCN(C5COC5)C[C@@H]4C)ncc3Cl)c3nc4n(c(=O)c23)CCC4)c1F [I-19, (S)-5-(1-(2-((5-chloro-2-(2-methyl-4-(oxetan-3-yl)piperazin-1-yl)pyridin-4-yl)amino)-2-oxoethyl)-4-oxo-4,6,7,8-tetrahydro-1H-dipyrrolo[1,2-a:2′,3′-d]pyrimidin-3-yl)-4-fluoro-2-hydroxy-3-methoxybenzamide]",EC50,Karpas422 cells; [3],0.513 µM
same,Kd,[1],0.0266 µM
same,IC50,[2]; [4],0.501 µM
"C[C@H]1CN(C2COC2)CCN1c1cc(NC(=O)Cn2cc(-c3cc(C(N)=O)c(O)c(F)c3F)c3c(=O)n4c(nc32)CCC4)c(Cl)c(F)n1 [I-20, (S)-5-(1-(2-((3-chloro-2-fluoro-6-(2-methyl-4-(oxetan-3-yl)piperazin-1-yl)pyridin-4-yl)amino)-2-oxoethyl)-4-oxo-4,6,7,8-tetrahydro-1H-dipyrrolo[1,2-a:2′,3′-d]pyrimidin-3-yl)-3,4-difluoro-2-hydroxy-benzamide]",EC50,Karpas422 cells; [3],0.0576 µM
same,Kd,[1],0.00396 µM
same,IC50,[2]; [4],0.0612 µM
"CC1CN(C)CC(C)N1c1cc(NC(=O)Cn2cc(-c3cc(C(N)=O)c(O)c(F)c3F)c3c(=O)n4c(nc32)CCC4)c(Cl)cn1 (stereo not drawn) [I-21, 5-(1-(2-((5-chloro-2-(2,4,6-trimethyl-piperazin-1-yl)pyridin-4-yl)amino)-2-oxoethyl)-4-oxo-4,6,7,8-tetrahydro-1H-dipyrrolo[1,2-a:2′,3′-d]pyrimidin-3-yl)-3,4-difluoro-2-hydroxy-benzamide]",EC50,Karpas422 cells,0.329 µM
same,Kd,[1],0.0256 µM
same,IC50,[2],0.355 µM
"CN(C)c1cc(NC(=O)Cn2cc(-c3cc(C(N)=O)c(O)c(F)c3F)c3c(=O)n4c(nc32)CCC4)c(Cl)c(F)n1 [I-22, 5-(1-(2-((3-chloro-6-(dimethylamino)-2-fluoropyridin-4-yl)amino)-2-oxoethyl)-4-oxo-4,6,7,8-tetrahydro-1H-dipyrrolo [1,2-a:2′,3′-d]pyrimidin-3-yl)-3,4-difluoro-2-hydroxybenzamide]",EC50,Karpas422 cells; [3],0.146 µM
same,Kd,[1],0.0118 µM
same,IC50,[2]; [4],0.274 µM
"CCN1CCN(c2cc(NC(=O)Cn3cc(-c4cc(C(N)=O)c(O)c(F)c4F)c4c(=O)n5c(nc43)CCC5)c(Cl)c(F)n2)[C@@H](C)C1 [I-23, (S)-5-(1-(2-((3-chloro-6-(4-ethyl-2-methyl-piperazin-1-yl)-2-fluoro-pyridin-4-yl)amino)-2-oxoethyl)-4-oxo-4,6,7,8-tetrahydro-1H-dipyrrolo [1,2-a:2′,3′-d]pyrimidin-3-yl)-3,4-difluoro-2-hydroxybenzamide]",EC50,Karpas422 cells; [3],0.102 µM
same,Kd,[1],0.00797 µM
same,IC50,[2]; [4],0.0915 µM
"C[C@H]1CN(CC2CC2)CCN1c1cc(NC(=O)Cn2cc(-c3cc(C(N)=O)c(O)c(F)c3F)c3c(=O)n4c(nc32)CCC4)c(Cl)c(F)n1 [I-24, (S)-5-(1-(2-((3-chloro-6-(4-(cyclopropylmethyl)-2-methylpiperazin-1-yl)-2-fluoropyridin-4-yl)amino)-2-oxoethyl)-4-oxo-4,6,7,8-tetrahydro-1H-dipyrrolo[1,2-a:2′,3′-d]pyrimidin-3-yl)-3,4-difluoro-2-hydroxy-benzamide]",EC50,Karpas422 cells; [3],0.134 µM
same,Kd,[1],0.0123 µM
same,IC50,[2]; [4],0.152 µM
"COCCN1CCN(c2cc(NC(=O)Cn3cc(-c4cc(C(N)=O)c(O)c(F)c4F)c4c(=O)n5c(nc43)CCC5)c(Cl)c(F)n2)[C@@H](C)C1 [I-25, (S)-5-(1-(2-((3-chloro-2-fluoro-6-(4-(2-methoxyethyl)-2-methyl-piperazin-1-yl)pyridin-4-yl)amino)-2-oxoethyl)-4-oxo-4,6,7,8-tetrahydro-1H-dipyrrolo[1,2-a:2′,3′-d]pyrimidin-3-yl)-3,4-difluoro-2-hydroxy-benzamide]",EC50,Karpas422 cells; [3],0.0751 µM
same,Kd,[1],0.00564 µM
same,IC50,[2]; [4],0.0787 µM

# Source: patent publication US11242351B2, “Tricyclic inhibitors of the BCL6 BTB domain protein-protein interaction and uses thereof” (priority 2017, dated 2022)
